In US7820700B2, “2-phenylpyridine derivative” (Astellas Pharma Inc., priority 2004, dated 2010):
Structures can show the parent of a compound that is named as a salt.

How the values were obtained:
[1] = target: T1, xanthine oxidase (derived from butter milk) (Bos taurus, UniProt P80457); assay: Xanthine oxidase-inhibitory activity (pterin oxidation, fluorescence); format: biochemical; settings: pterin 5 μM, room temperature; read-out: IC50 (xanthine oxidase inhibition)
T1 construct: xanthine oxidase (derived from butter milk, manufactured by Sigma); purchased Sigma; host or cells: butter milk (natural source)
Method: A test compound was dissolved in DMSO (manufactured by Nakarai) so as to be a concentration of 10 mM and then used after the concentration was adjusted to an aimed one at use.
The evaluation of xanthine oxidase-inhibitory activity of the compound of the invention was carried out using a method described in a document (Free Radic. Biol. Med. 6, 607-615, 1992) with partial modification. Namely, xanthine oxidase (derived from butter milk, manufactured by Sigma) was adjusted to 0.03 units/ml using a 50 mM phosphate buffer and was added to a 96-well plate in an amount of 50 μl/well. Each test compound diluted so as to be a final concentration was added thereto in an amount of 2 μl/well, followed by treatment at room temperature for 20 minutes. Pterin (manufactured by Sigma) was added thereto so as to be a final concentration of 5 μM, followed by reaction at room temperature for 10 minutes. Measurement was performed using a microplate reader saphire (manufactured by Tecan) under conditions of excitation at 345 nm and emission at 390 nm (pterin was oxidized by xanthine oxidase into isoxanthopterin, which emitted a light under the conditions).
The concentration of the test compound at which 50% inhibition was observed (IC50 value) was calculated, the emissions of isoxanthopterin under conditions of the presence or absence of xanthine oxidase being 0% inhibition and 100% inhibition, respectively.

[2] = tested on: pyrimidine synthetic pathway (BUN level); assay: Pyrimidine synthetic pathway-inhibitory action (influence on BUN level); format: in vivo; settings: oral administration of 30 mg/kg
Source text: Allopurinol which is an existing hyperuricemia therapeutic drug is known to cause renal dysfunction as an undesirable action. As mentioned previously, since allopurinol has a nucleic acid-like structure, as one cause thereof, it is presumed that it inhibits pyrimidine synthetic pathway. […] Thus, according to the method described in the document, the influence of the compounds of the invention on a BUN level was confirmed.

[3] = tested on: VEGF mRNA in the vitreous body; assay: Diabetic retinopathy model (streptozotocin), VEGF mRNA in the vitreous body; format: in vivo, male Wistar rat; settings: 30 mg/kg oral once a day for 7 days, STZ rats, vs control group
Method: The efficiency of the compound of the invention on diabetic retinopathy was tested by the method described in European Journal of Pharmacology 458 (2003) 283-289 (except that the animal used in the experiment was male Wistar rat, 10 weeks old).
Streptozotocin (STZ) was administered to the animals to be tested and increase in blood sugar level was confirmed after 24 hours. Thereafter, the animals were divided into a 0.5% methyl cellulose-administered group (control group) and 30 mg/kg test compound-administered group and oral administration was performed once a day for 7 days.

AKR1C3 (17βHSD5) = target: T2, AKR1C3 (17βHSD5) (Homo sapiens, UniProt P42330); assay: AKR1C3 inhibitory action (DELFIA Testosterone Reagents); format: biochemical; settings: read-out: IC50 (AKR1C3 inhibition)
T2 sequence (P42330 1-323): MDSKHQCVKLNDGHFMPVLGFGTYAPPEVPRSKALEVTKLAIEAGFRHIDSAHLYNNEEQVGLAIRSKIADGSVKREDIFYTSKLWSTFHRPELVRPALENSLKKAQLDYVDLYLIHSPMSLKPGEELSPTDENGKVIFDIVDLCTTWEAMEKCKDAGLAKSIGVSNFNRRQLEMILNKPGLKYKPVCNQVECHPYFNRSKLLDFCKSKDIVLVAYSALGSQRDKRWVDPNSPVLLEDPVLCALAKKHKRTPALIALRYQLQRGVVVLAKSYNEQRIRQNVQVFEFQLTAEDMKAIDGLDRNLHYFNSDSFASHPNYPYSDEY
Source text: AKR1C3 known as a molecule belonging to aldo-keto reductase is known as a multifunctional enzyme (Jikken Igaku 23, 90-97, 2005). There is expected the application of a compound inhibiting AKR1C3 to various morbid conditions including inflammatory diseases (Mol. Pharmacol 67, 60-68, 2005) (Current Pharmaceutical Design 10, 3505-3524, 2004) (J. Biol. Chem 273, 1855-1888, 1998).

TNBS-induced enteritis = assay: Trinitrobenzenesulfonic acid-induced enteritis-inhibitory action; format: in vivo, male Wistar rats; settings: 3 mg/kg oral once a day, dissection on 21st day, Wistar rat
Method: The effectiveness of the compound of the invention on an enteritis model can be also evaluated by a model using trinitrobenzenesulfonic acid (TNBS) as an inducing agent instead of acetic acid (Cell. Mol. Biol, 38, 189-199, 1992). Thus, referring to the method described in the report, the enteritis-suppressing action of the compound of the invention was evaluated.
Namely, TNBS or physiological saline as a normal group was administered into the rectum of male Wistar rats of 200 to 250 g. Thereafter, a test compound or 0.5% methyl cellulose (control group) was orally administered once a day and dissection was performed on each administered group on 21st day. A part of the large intestine 2 to 7 cm from the anus side was cut out and incised. After feces were removed by means of tweezers, the part was washed and a score of morbid conditions was evaluated and tissue weight was measured. The score of morbid conditions and a tissue weight increase-suppressing ratio were calculated as in the evaluation method of the above acetic acid-induced enteritis-suppressing action.

T1 sequence (P80457 whole entry): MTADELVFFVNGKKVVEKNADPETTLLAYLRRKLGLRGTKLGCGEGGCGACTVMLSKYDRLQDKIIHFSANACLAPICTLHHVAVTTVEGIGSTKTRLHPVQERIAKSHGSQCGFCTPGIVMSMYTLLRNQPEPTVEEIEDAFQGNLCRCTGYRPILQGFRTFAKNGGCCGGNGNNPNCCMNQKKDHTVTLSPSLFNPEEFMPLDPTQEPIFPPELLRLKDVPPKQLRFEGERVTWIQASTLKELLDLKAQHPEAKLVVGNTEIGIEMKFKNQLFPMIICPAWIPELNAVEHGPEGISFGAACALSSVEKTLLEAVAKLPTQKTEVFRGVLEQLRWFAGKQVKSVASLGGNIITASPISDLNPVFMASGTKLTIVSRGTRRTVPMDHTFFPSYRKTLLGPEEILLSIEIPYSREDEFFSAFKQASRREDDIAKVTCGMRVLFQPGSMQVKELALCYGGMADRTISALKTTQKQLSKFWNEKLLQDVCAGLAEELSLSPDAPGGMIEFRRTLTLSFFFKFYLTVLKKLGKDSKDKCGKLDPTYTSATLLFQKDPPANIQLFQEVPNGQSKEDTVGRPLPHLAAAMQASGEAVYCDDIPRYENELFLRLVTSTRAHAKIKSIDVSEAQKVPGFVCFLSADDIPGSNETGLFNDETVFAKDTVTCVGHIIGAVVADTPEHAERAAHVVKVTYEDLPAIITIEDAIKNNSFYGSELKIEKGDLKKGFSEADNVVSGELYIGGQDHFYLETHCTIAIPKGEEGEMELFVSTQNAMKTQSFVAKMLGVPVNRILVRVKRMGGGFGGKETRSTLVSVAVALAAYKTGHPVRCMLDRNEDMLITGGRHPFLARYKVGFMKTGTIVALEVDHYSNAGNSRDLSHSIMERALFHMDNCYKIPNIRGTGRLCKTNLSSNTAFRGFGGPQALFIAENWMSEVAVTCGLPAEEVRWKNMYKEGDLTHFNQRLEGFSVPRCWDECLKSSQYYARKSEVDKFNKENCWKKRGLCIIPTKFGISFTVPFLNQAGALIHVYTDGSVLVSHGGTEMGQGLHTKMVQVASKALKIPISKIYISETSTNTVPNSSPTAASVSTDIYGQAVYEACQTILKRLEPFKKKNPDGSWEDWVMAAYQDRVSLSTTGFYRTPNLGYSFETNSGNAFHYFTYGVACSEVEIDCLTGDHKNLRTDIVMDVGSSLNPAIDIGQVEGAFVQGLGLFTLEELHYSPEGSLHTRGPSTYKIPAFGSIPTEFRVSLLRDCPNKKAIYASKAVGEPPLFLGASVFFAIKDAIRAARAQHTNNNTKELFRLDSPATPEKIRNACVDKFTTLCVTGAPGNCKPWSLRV

SMILES: N#Cc1cc(-c2cc(C(=O)O)ccn2)ccc1NC1CCCCCC1 [Example 63]
- IC50 [1]: 1.1 nM

SMILES: N#Cc1cc(-c2cc(C(=O)O)ccn2)ccc1OCc1ccccc1 [Example 9]
- IC50 [1]: 2.6 nM

SMILES: CC1(C)CC(Oc2ccc(-c3cc(C(=O)O)ccn3)cc2C#N)CC(C)(C)C1 [Example 44]
- IC50 [1]: 4.3 nM

SMILES: N#Cc1cc(-c2cc(C(=O)O)ccn2)ccc1OC1CCOCC1 [Example 14]
- IC50 [1]: 4.1 nM

SMILES: N#Cc1cc(-c2cc(C(=O)O)ccn2)ccc1N1CC=CCC1 [Example 49]
- IC50 [1]: 2.8 nM

SMILES: CC(C)COc1ccc(-c2nccc(C(=O)O)c2F)cc1C#N [Example 75]
- IC50 [1]: 3.2 nM

SMILES: CC(C)COc1ccc(-c2cc(C(=O)O)ccn2)cc1C#N [Example 1, 2-(3-cyano-4-isobutoxyphenyl)isonicotinic acid]
- IC50 [1]: 3.6 nM

SMILES: CC(C)=CCOc1ccc(-c2cc(C(=O)O)ccn2)cc1C#N [Example 72]
- IC50 [1]: 3.1 nM

SMILES: CC(C)COc1ccc(-c2cc(C(=O)O)c(Cl)cn2)cc1C#N [Example 77]
- IC50 [1]: 4 nM

SMILES: CC1CCN(c2ccc(-c3cc(C(=O)O)ccn3)cc2C#N)CC1 [Example 45]
- IC50 [1]: 1.3 nM
- Pyrimidine synthetic pathway inhibitory action (BUN level) [2]: no inhibitory action

SMILES: N#Cc1cc(-c2cc(C(=O)O)ccn2)ccc1OCC(F)(F)F [Example 13]
- IC50 [1]: 10 nM

SMILES: N#Cc1cc(-c2cc(C(=O)O)ccn2)ccc1OCCOc1ccccc1 [Example 30]
- IC50 [1]: 4.2 nM

SMILES: N#Cc1cc(-c2cc(C(=O)O)ccn2)ccc1N1CCCCCC1 [Example 4, 2-(4-azepan-1-yl-3-cyanophenyl)isonicotinic acid monohydrochloride]
- Suppression of increase of VEGF mRNA in the vitreous body [3]: significant suppressing action
- IC50 (AKR1C3 (17βHSD5)): ≤ 1000 nM
- IC50 [1]: 1.2 nM
- Pyrimidine synthetic pathway inhibitory action (BUN level) [2]: no inhibitory action
- Suppression of intestinal tissue weight increase (TNBS-induced enteritis): ≥ 70%

SMILES: N#Cc1cc(-c2cc(C(=O)O)ccn2)ccc1OCc1ccccn1 [Example 21]
- IC50 [1]: 10 nM

SMILES: CC(C)CSc1ccc(-c2cnccc2C(=O)O)cc1C#N [Example 7, sodium 5-[3-cyano-4-(isobutylthio)phenyl]isonicotinate]
- IC50 [1]: 2.5 nM

SMILES: COC1(C2CCCCC2)CCN(c2ccc(-c3cc(C(=O)O)ccn3)cc2C#N)CC1 [Example 67]
- IC50 [1]: 2.2 nM

SMILES: CC(C)COc1c(Br)cc(-c2cc(C(=O)O)ccn2)cc1C#N [Example 79]
- IC50 [1]: 5.8 nM

SMILES: CSCCCOc1ccc(-c2cc(C(=O)O)ccn2)cc1C#N [Example 3, 2-{3-cyano-4-[3-(methylthio)propoxy]phenyl}isonicotinic acid]
- IC50 [1]: 5 nM

SMILES: CCCCN(C)c1ccc(-c2cc(C(=O)O)ccn2)cc1C#N [Example 57]
- IC50 [1]: 3.1 nM

SMILES: N#Cc1cc(-c2cc(C(=O)O)ccn2)ccc1OCCOc1cc(F)cc2c1OCCC2 [Example 33]
- IC50 [1]: 7.3 nM
